Results on eight molecules are retold here after PubChem BioAssay (NCI).

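Cultured in 96-well plates, cells were exposed to test compound for 48 hours across five concentrations. At the GI50, growth is halved. Definition used: TGI = concentration required for complete inhibition of growth.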

Common to all, as to assay: NCI anticancer screen, dose series, 48 h
In experiment [1] the test system is MALME-3M melanoma.
Experiment [2] deals with UACC-62 melanoma.
Experiment [3] concerns NCI-H226 lung.
The subject of experiment [4] is SK-OV-3 ovarian.
The subject of experiment [5] is SF-295 CNS.
For experiment [6], the system named is U251 CNS.
Experiment [7] deals with CCRF-CEM leukemia.
Experiment [8] relates to SR leukemia.
In experiment [9] the test system is M14 melanoma.
Experiment [10] deals with K-562 leukemia.

With `O=C(Nc1n[nH]c2nnc(-c3cccnc3)cc12)C1CC1`, the GI50 was > 25 µM in experiment [1]; 7.37 µM in experiment [2]; 2.7 µM in experiment [3]; 0.621 µM in [4]; 0.338 µM in experiment [5]; 1.06 µM in experiment [6]. Besides, the GI50 in experiment [7] was 7.05 µM; in experiment [8], 6.23 µM; in experiment [9], > 16.1 µM; in experiment [10] it was 1.74 µM. For the same molecule, the TGI in [1] is > 25 µM; in experiment [2], > 25 µM; in experiment [3], > 13.9 µM; in experiment [4], > 25 µM; in experiment [5], > 7.49 µM; in experiment [6], > 25 µM. In addition, the TGI in experiment [7], in experiment [8], in [9] and in [10] was > 25 µM each time.
With `CC(C)NC(=O)CCN(C(=O)O)S(=O)(=O)c1ccc(NC(=O)c2ccccc2)cc1`, the TGI is > 100 µM in experiment [1]; > 82.7 µM in experiment [2]; > 100 µM in [3]; > 100 µM in experiment [4]; > 100 µM in [5]; 32.1 µM in [6]. The TGI in experiment [7] was > 63.4 µM; in experiment [8] it was > 83 µM; in experiment [9] it was > 100 µM; in experiment [10], > 64.5 µM.
With `Oc1cc2ccccc2c(-c2c(O)c(O)cc3ccccc23)c1O`, the GI50 in experiment [1] is 3.85 µM; in experiment [2], 1.26 µM; in experiment [3], 3.83 µM; in [4], 1.68 µM; in experiment [5] it was 0.77 µM; in experiment [6], 1.32 µM. Besides, the GI50 was 0.554 µM in experiment [7], 0.912 µM in [8], 1.4 µM in experiment [9] and 0.0738 µM in experiment [10]. Moreover, the TGI in experiment [1] is 21.4 µM; in experiment [2], 4.23 µM; in experiment [3] it was 26.6 µM; in experiment [4], 17.3 µM; in [5], > 29.6 µM; in experiment [6] it was 20.3 µM. In addition, the TGI was > 27.7 µM in experiment [7], > 100 µM in experiment [8] and 11.4 µM in experiment [9].
`N#C[Se]CCCNS(=O)(=O)C1CC2C=CC1C2` (centres undefined): the GI50 in [1] is 0.416 µM; in [2], 1.59 µM; in experiment [3] it was 0.267 µM; in experiment [4], 2.77 µM; in [5], 1.01 µM; in experiment [6], 1.08 µM. Also, the GI50 in experiment [7] is 0.484 µM; in [8], 0.57 µM; in experiment [9] it was 0.231 µM; in experiment [10], 1.78 µM. Besides, the TGI was found to be 1.87 µM in experiment [1]; 3.38 µM in experiment [2]; 0.674 µM in experiment [3]; 5.65 µM in [4]; 2.43 µM in experiment [5]; 3.36 µM in experiment [6]. Besides, the TGI in experiment [7] was 38.2 µM; in experiment [8], > 100 µM; in experiment [9], 0.655 µM; in experiment [10] it was > 41.6 µM.
For `O=C1c2ccccc2-c2c1c1ccccc1c(=O)n2CCCNCCCCNCCCN1C(=O)c2ccccc2C2C(=O)c3ccccc3C21` (centres undefined), the GI50 was 5.27 µM in experiment [1]; 0.666 µM in experiment [2]; 0.575 µM in [3]; 1.02 µM in experiment [4]; 0.0647 µM in experiment [5]; 0.0756 µM in [6]. In addition, the GI50 in experiment [7] is 0.0291 µM; in experiment [8], < 0.005 µM; in experiment [9], 0.643 µM; in experiment [10] it was 0.182 µM. Further, the TGI in experiment [1] stood at 35 µM; in [2], 3.25 µM; in experiment [3], 2.19 µM; in [4], 2.81 µM; in experiment [5], 0.872 µM; in experiment [6] it was 0.767 µM. Further, the TGI was 0.766 µM in [7], 0.00559 µM in experiment [8], 1.53 µM in [9] and 0.727 µM in [10].
Turning to `Cc1ccc(Cl)c(Nc2ccccc2C(=O)O)c1Cl`, the GI50 is 23.1 µM in experiment [1]; 16.3 µM in [2]; 28 µM in experiment [3]; 26 µM in [4]; 25.3 µM in [5]; 26 µM in experiment [6]. The GI50 in experiment [7] is 25.5 µM; in experiment [8], 25.4 µM; in [9], 21.3 µM; in experiment [10], 33.2 µM. Moreover, the TGI in [1] is 63.4 µM; in experiment [2], 32.7 µM; in experiment [3], 82.4 µM; in experiment [4], 65 µM; in experiment [5] it was 76 µM; in experiment [6], 82.4 µM. For the same molecule, the TGI in experiment [7] is 90.1 µM; in experiment [8] it was 78.1 µM; in [9] it was 62.6 µM; in experiment [10], > 100 µM.
On to `CC(=O)OC12COC1CC(O)C1(C)C(=O)C(O)C3=C(C)C(O)CC(O)(C(OC(=O)c4ccccc4)C21)C3(C)C` (centres undefined), for which the TGI in experiment [1] was > 100 µM; in experiment [2], > 100 µM; in experiment [3], > 100 µM; in experiment [4], > 100 µM; in experiment [5], > 100 µM; in experiment [6] it was > 74.3 µM. Also, the TGI in experiment [7], in [8], in [9] and in [10] was > 100 µM each time.
Consider `O=C(O)c1ccc(C(=O)O)c(C(=O)Nc2ccc3c(c2)C(=O)c2ccccc2-3)c1`, for which the TGI in experiment [1], in experiment [2], in experiment [3], in experiment [4], in experiment [5] and in experiment [6] was > 100 µM in each case. For the same molecule, the TGI in experiment [7], in [8], in experiment [9] and in [10] was > 100 µM throughout.
